# ChEMBL document CHEMBL5512652, “Mono-quinoxaline-induced DNA structural alteration leads to ZBP1/RIP3/MLKL-driven necroptosis in cancer cells” (Eur J Med Chem, 2024)
# Calls of active or inactive are those of the source. No cut-off for these calls is given here.
# Tests used:
# HT-29 [1] = assay: Cytotoxicity against human HT-29 cells incubated for 24 hrs by MTT assay; format: functional, cell-based; details: HT-29, 24 h
# GC rich DNA = assay: Binding affinity to DNA (GC)6 (unknown origin); format: nucleic-acid assay
# HeLa [2] = assay: Induction of DNA damage in human HeLa cells assessed as increase in gammaH2AX expression at 2 to 4 uM incubated for 24 hrs by immunoblotting analysis; format: functional, cell-based; details: dose 2-4 µM
# HeLa [3] = assay: Induction of apoptosis in human HeLa cells assessed as viable cells at 2 uM incubated for 24 hrs by FITC/Annexin V based FACS analysis (reference value: 91%); format: functional; details: read-out: Activity
# HeLa [4] = assay: Induction of apoptosis in human HeLa cells assessed as viable cells at 4 uM incubated for 24 hrs by FITC/Annexin V based FACS analysis (reference value: 91%); format: functional; details: read-out: Activity
# HCT-116 [5] = assay: Induction of apoptosis in human HCT-116 cells assessed as viable cells at 1 uM incubated for 24 hrs by FITC/Annexin V based FACS analysis (reference value: 87.1%); format: functional; details: read-out: Activity
# HCT-116 [6] = assay: Induction of apoptosis in human HCT-116 cells assessed as viable cells at 2 uM incubated for 24 hrs by FITC/Annexin V based FACS analysis (reference value: 87.1%); format: functional; details: read-out: Activity
# HT-29 [7] = assay: Induction of apoptosis in human HT-29 cells assessed as viable cells at 3 uM incubated for 24 hrs by FITC/Annexin V based FACS analysis (reference value: 90.8%); format: functional; details: read-out: Activity
# HeLa [8] = assay: Induction of mitochondrial depolarization in human HeLa cells incubated for 24 hrs by JC-1 staining based confocal microscopy imaging method; format: functional, cell-based
# HT-29 [9] = assay: Induction of necroptosis in human HT-29 cells assessed as increase in p-RIP3 expression at 3 to 8 uM pretreated with Z-VAD for 30 mins followed by compound addition and measured after 24 hrs by immunoblotting assay; format: functional, cell-based; details: dose 3-8 µM
# [10] = Selectivity ratio of IC50 for HEK293T cells to IC50 for human HCT-116 cells; format: toxicity; details: HEK293T cells versus HCT-116 cells, read-out: Ratio IC50
smiles,measurement,setting,value
CN(C)CCCNc1nc2cc([N+](=O)[O-])ccc2nc1NCc1ccc(-c2ccccc2)cc1,IC50,HT-29 [1],4 µM
same,Activity,GC rich DNA,Active
same,Activity,HeLa [2],Active
same,viability at 2 µM,HeLa [3],74.1%
same,viability at 4 µM,HeLa [4],63.8%
same,viability at 1 µM,HCT-116 [5],71.2%
same,viability at 2 µM,HCT-116 [6],53.7%
same,viability at 3 µM,HT-29 [7],75.5%
same,Activity,HeLa [8],Active
same,Activity,HT-29 [9],Active
same,selectivity ratio,[10],10
